# Data from patent US20220386591A1, “CRYOPRESERVATION COMPOSITIONS AND METHODS INCLUDING GLYCEROL ESTER COMPONENTS” (THE SECANT GROUP LLC, priority 2021, published 2022).
# Test system: Jurkat E6.1 cells (ATCC #TIB-152)
# Test: Post-thaw viability of cells frozen immediately after addition of cryopreservative (trypan blue exclusion)
# Assay type: cell-based
# Conditions: 10 wt % DMSO, FIG. 1
# Procedure: A glycerol ester component in the form of PGS was added to cell culture media containing Jurkat E6.1 cells (ATCC #TIB-152) at three different concentrations: 250 μg/mL (about 0.025 wt %), 500 μg/mL (about 0.05 wt %), and 1000 μg/mL (about 0.1 wt %). […] Cell culture media containing Jurkat E6.1 cells (ATCC #TIB-152) with no PGS and cell culture media containing Jurkat E6.1 cells (ATCC #TIB-152) with 10% DMSO served as controls. Cells were then immediately frozen at a rate of −1° C./min to −80° C. Once frozen, the cryopreserved cells were transferred to liquid nitrogen vapor phase storage for 72 hours. Following storage in a liquid nitrogen vapor phase, the cells were thawed and their viability was assessed through a trypan blue exclusion assay using a ThermoFisher Countess II FL automated cell counter to determine the percentage of viable cells.
smiles,measurement,value
"C[S+](C)[O-] [DMSO, dimethyl sulfoxide]",cryoprotection of viable cells post-thaw (positive control),provided cryoprotection to essentially all of the viable cells
